# Laboratory results as given in patent US20020111274A1, “1-alkyl-3-[1-(substituted phenyl) benzotriazol-6-yl] uracils” (BASF Aktiengesellschaft, priority 2000, published 2002).
row,melting point,Compound
1,160 to 164 °C,"CCc1ccc(-n2nnc3cc(F)c(-n4c(=O)cc(C(F)(F)F)[nH]c4=O)cc32)cc1 [Example 3, 3-[1-(4-ethylphenyl)-5-fluoro-1H-1,2,3-benzotriazol-6-yl]-6-(trifluoromethyl)-2,4(1H,3H)-pyrimidinedione]"
2,160 °C,"CCc1cccc(-n2nnc3cc(F)c(-n4c(=O)cc(C(F)(F)F)[nH]c4=O)cc32)c1 [Example 13, 3-[1-(3-ethylphenyl)-5-fluoro-1H-1,2,3-benzotriazol-6-yl]-6-(trifluoromethyl)-2,4(1H,3H)-pyrimidinedione]"
